Results on 20 compounds are retold here after PubChem BioAssay (NCI).

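96-well plates; 48 h exposure; 5 concentrations. Endpoints by linear interpolation between flanking doses. Not reached: highest tested concentration assigned. TGI marks complete inhibition of growth.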

Test in all cases: inhibition of tumour cell growth, NCI panel, 48 h
For experiment [1], the system named is HT29 colon.
The subject of experiment [2] is TK-10 renal.
The subject of experiment [3] is PC-3 prostate.
Experiment [4] deals with M14 melanoma.
The subject of experiment [5] is CAKI-1 renal.
The test system of experiment [6] is MDA-N.
Experiment [7] relates to 786-0 renal.
Experiment [8] relates to A498 renal.
For experiment [9], the system named is SK-MEL-2 melanoma.
Experiment [10] concerns NCI-H23 lung.
The test system of experiment [11] is HCT-116 colon.
Experiment [12] deals with NCI/ADR-RES ovarian.
Experiment [13] relates to SK-MEL-5 melanoma.
Experiment [14] concerns OVCAR-3 ovarian.
Experiment [15] concerns MCF7 breast.
Experiment [16] has as its system BT-549 breast.

With `COC(=N)c1ncn(Cc2ccccc2)c1N`, the TGI in experiment [1], in experiment [2], in experiment [3], in [4], in experiment [5] and in [6] was more than 100 µM in each case. Also, the TGI in [7], in [8], in [9], in experiment [10], in experiment [11] and in experiment [12] was more than 100 µM in each case. Besides, the TGI in [13], in experiment [14] and in experiment [15] was more than 100 µM each time.

Regarding `S=C1NCCN1C(=S)NC1CCCCC1`, the TGI in experiment [1] was 57.2 µM; in experiment [2], 93.1 µM; in experiment [4] it was 51.2 µM; in experiment [5] it was 74.5 µM; in [6], more than 100 µM; in experiment [7] it was more than 100 µM. For the same compound, the TGI is 38.7 µM in [8]; 60.9 µM in experiment [16]; 96 µM in [9]; 59.2 µM in experiment [10]; more than 100 µM in [11]; more than 100 µM in [12]. The TGI was 50.7 µM in experiment [13], more than 100 µM in experiment [14] and more than 100 µM in experiment [15].

`CC(=O)[C@H]1[C@@H](OCc2ccccc2)O[N+]([O-])=C(C)[C@@H]1c1ccccc1`: the TGI was 33.8 µM in experiment [1]; more than 100 µM in [2]; more than 100 µM in experiment [3]; more than 100 µM in experiment [4]; 52 µM in [5]; more than 100 µM in experiment [6]. Moreover, the TGI was 31.4 µM in [7]; more than 100 µM in [8]; more than 100 µM in [9]; more than 100 µM in experiment [10]; more than 100 µM in experiment [12]; more than 100 µM in experiment [13]. In addition, the TGI in experiment [14] is 57.7 µM; in experiment [15], more than 100 µM.

As for `NC(CCC(=O)NC(CSC(=O)N(O)c1ccc(Cl)cc1)C(=O)NCC(=O)O)C(=O)O` (stereo not drawn), the TGI in [1], in [3], in experiment [4], in experiment [5], in [6] and in experiment [7] was more than 0.5 µM in each case. Further, the TGI in experiment [16], in experiment [9], in [10], in experiment [11], in experiment [12] and in [13] was more than 0.5 µM each time. Besides, the TGI in experiment [14] and in [15] was more than 0.5 µM throughout.

In the case of `CC12OC3(C(O)C1O)C(C(=O)O[C@H]3CO[Si](C)(C)C(C)(C)C)C2S(=O)(=O)c1ccccc1` (stereo partly drawn), the TGI in [1] was more than 100 µM; in experiment [2] it was more than 100 µM; in experiment [3], 96.3 µM; in [4] it was more than 100 µM; in [6], more than 100 µM; in [7] it was more than 100 µM. Besides, the TGI in experiment [8] is more than 100 µM; in experiment [9], more than 100 µM; in experiment [11], more than 100 µM; in [12] it was 30.4 µM; in experiment [14], more than 100 µM; in [15], more than 100 µM.

With `O=C(O)c1cccc(S(=O)(=O)NN2C(=O)CSC2c2ccccc2Cl)c1` (stereo not drawn), the TGI in experiment [1], in experiment [2], in experiment [3], in experiment [4], in experiment [5] and in experiment [6] was more than 100 µM in each case. In addition, the TGI in experiment [7], in [16], in experiment [9], in experiment [10], in experiment [11] and in [13] was more than 100 µM each time. Moreover, the TGI in experiment [14] and in experiment [15] was more than 100 µM in each case.

In the case of `CN(C)C=NCc1ccc2c(c1)OCO2`, the TGI in experiment [1], in [2], in experiment [3], in experiment [4], in [5] and in [6] was more than 100 µM throughout. Further, the TGI in experiment [7], in [8], in experiment [9], in experiment [10], in experiment [11] and in [12] was more than 100 µM throughout. For the same compound, the TGI in experiment [13], in experiment [14] and in experiment [15] was more than 100 µM throughout.

On to `CCOC(=O)CCC(NC(=O)c1ccc(OCc2ccc3nc(OC)c(OC)nc3c2)cc1)C(=O)OCC` (stereo not drawn), for which the TGI is more than 100 µM in experiment [1]; more than 100 µM in [2]; more than 100 µM in experiment [3]; 96.8 µM in experiment [4]; more than 100 µM in experiment [5]; more than 100 µM in [6]. For the same compound, the TGI in [7] was more than 100 µM; in [8] it was more than 100 µM; in experiment [16], more than 100 µM; in experiment [9], 74.6 µM; in [10], more than 100 µM; in experiment [11], more than 100 µM. Moreover, the TGI in experiment [13] was more than 100 µM; in experiment [14], 49.9 µM; in experiment [15] it was more than 100 µM.

As to `CC(C)[Si](Oc1cc2c3c(ccc2c(O)c1[C@@H](C)CO[Si](C)(C)C(C)(C)C)C(C)(C)CCC3)(C(C)C)C(C)C`, the TGI in [1], in experiment [2], in [3], in experiment [4], in experiment [5] and in experiment [6] was more than 100 µM throughout. The TGI in experiment [7], in experiment [8], in experiment [9], in experiment [10], in experiment [11] and in experiment [12] was more than 100 µM in each case. For the same compound, the TGI in experiment [13] was 59.8 µM; in [14] it was more than 100 µM; in experiment [15], more than 100 µM.

Regarding `Cc1ccccc1C(=O)NC(O)(C(F)(F)F)C(F)(F)F`, the TGI in experiment [1], in [2], in experiment [3], in experiment [4], in experiment [5] and in experiment [6] was more than 100 µM in each case. Further, the TGI in experiment [7], in experiment [8], in [9], in experiment [10], in [11] and in experiment [12] was more than 100 µM throughout. The TGI in experiment [13], in experiment [14] and in experiment [15] was more than 100 µM each time.

Turning to `c1ccc(N=C2C(=Nc3ccccc3)N(C3CCCCC3)C(=NC3CCCCC3)N2c2ccccc2)cc1`, the TGI in experiment [1], in [2], in [3], in experiment [4], in experiment [6] and in [7] was more than 100 µM in each case. Also, the TGI in [8], in experiment [16], in experiment [9], in experiment [10], in [11] and in [13] was more than 100 µM throughout. The compound further showed a TGI in [15] of more than 100 µM.

As to `CSC1=N/C(=C\c2ccccc2)C(=O)N1CN1CCOCC1`, the TGI in [1] was 78.5 µM; in experiment [2] it was more than 100 µM; in experiment [3], more than 100 µM; in experiment [4], more than 100 µM; in experiment [6], more than 100 µM; in experiment [7], more than 100 µM. For the same compound, the TGI in [8], in experiment [9], in [10], in experiment [11], in [12] and in experiment [13] was more than 100 µM throughout. Besides, the TGI in experiment [14] and in [15] was more than 100 µM throughout.

Regarding `COc1ccc2[nH]c3c(C)c4ccnc(NCCCN(C)CCCN)c4c(C)c3c2c1`, the TGI amounted to 0.17 µM in [1]; 1.35 µM in [2]; 0.712 µM in experiment [3]; 0.335 µM in experiment [4]; 0.551 µM in experiment [5]; 0.496 µM in experiment [6]. For the same compound, the TGI came to 0.39 µM in [7]; 3.61 µM in experiment [16]; 0.809 µM in experiment [9]; 0.87 µM in [10]; 2.09 µM in experiment [12]; 0.37 µM in experiment [13]. Also, the results for the TGI in experiment [14] and in [15] were 1.54 µM and 0.313 µM, respectively.

`CNC(=O)C1CCC(=O)N1CN(C(C)=O)c1ccccc1` (stereo not drawn): the TGI in experiment [1], in [2], in [3], in [4], in [5] and in experiment [6] was more than 100 µM throughout. Also, the TGI in [7], in experiment [8], in [9], in [10], in [11] and in [12] was more than 100 µM in each case. In addition, the TGI in [13], in [14] and in [15] was more than 100 µM in each case.

As to `COC(=O)CCN1CCN(CCO)CC1C` (stereo not drawn), the TGI in [1], in experiment [2], in experiment [3], in experiment [4], in experiment [5] and in experiment [6] was more than 10 µM each time. The TGI in experiment [7], in experiment [8], in experiment [9], in experiment [10], in experiment [11] and in [12] was more than 10 µM throughout. Further, the TGI in [13], in experiment [14] and in experiment [15] was more than 10 µM in each case.

As to `Cc1ccc(O)c(-c2cc(-c3ccccc3)nc(/N=C\c3ccccc3)n2)c1`, the TGI in experiment [1], in experiment [2], in [3], in experiment [4], in experiment [6] and in experiment [7] was more than 100 µM each time. Besides, the TGI is 19.2 µM in [16]; more than 100 µM in experiment [9]; 81.5 µM in [10]; more than 100 µM in [11]; 85.6 µM in experiment [12]; more than 100 µM in experiment [13]. Moreover, the TGI in experiment [14] and in [15] was more than 100 µM in each case.

Take `N#Cc1nc(-c2ccccc2O)oc1N`: the TGI in [1], in experiment [2], in experiment [3], in [4], in experiment [5] and in [6] was more than 100 µM throughout. The TGI in experiment [7], in [8], in [9], in experiment [11], in experiment [13] and in experiment [15] was more than 100 µM in each case.

For the compound `CCOC(=O)C(Cc1ccc2c(c1)CCC2)Cc1ccc2c(c1)CCC2`, the TGI in [1], in [2], in experiment [3], in [4], in experiment [5] and in [6] was more than 100 µM each time. Further, the TGI in experiment [7], in [8], in experiment [9], in experiment [10], in [11] and in [12] was more than 100 µM in each case. The TGI in experiment [13] is 40.3 µM; in [14], more than 100 µM; in [15], more than 100 µM.

In the case of `N#Cc1c(N)nc2c(N=Nc3ccccc3)c(N)nn2c1Nc1ccccc1`, the TGI came to 31.4 µM in [1]; 52.6 µM in experiment [2]; 31.5 µM in experiment [4]; 29.2 µM in [5]; 38.5 µM in experiment [6]; 38.5 µM in [7]. The TGI was determined as 59.1 µM in [8]; 50.6 µM in [16]; 48.2 µM in [9]; 21.6 µM in experiment [10]; 27 µM in experiment [11]; 53.9 µM in [12]. Also, the values for the TGI in [13] and in [14] were 32.6 µM and 35.1 µM, respectively.

With `CC1C2CC(CC2O)C1(C)C` (stereo not drawn), the TGI in experiment [1], in experiment [2], in [3], in [4], in [5] and in [6] was more than 100 µM each time. Further, the TGI in experiment [7], in experiment [8], in experiment [16], in [10], in experiment [11] and in experiment [13] was more than 100 µM throughout. For the same compound, the TGI in [14] is more than 100 µM.
